How the values were obtained:
[1] = test system: KYSE-150 esophageal carcinoma cell line; test: In vitro cell-based assay: BrdU incorporation cell proliferation ELISA; parameters: species or system human; settings: Homo sapiens, KYSE-150 cells, 168 hours compound incubation, read-out: Cellular IC50
Method: Cell lines tested include the JMJD2C gene amplified cell line KYSE-150. This is a quantitative ELISA assay measuring DNA incorporation of BrdU during S-phase as a direct readout of cellular proliferation.
Assay Principle: This is a colorimetric immunoassay for the quantification of cell proliferation. Cells treated for 168 hours with test compounds are assayed for their ability to go through S-phase as a measure of their proliferative potential.
Assay Method: The human KYSE-150 (SMAD4 mut, TP53 mut) esophageal carcinoma cell line was seeded at 2,000 cells/well on a 96-well tissue culture treated plate. After an overnight incubation, cells were treated with compound in an 11-point dilution series with final concentrations ranging from 100 μM to 2 nM. Cells were then incubated in the presence of compound for 168 hours. After compound incubation the cells were assayed using a BrdU Cell Proliferation ELISA (Roche). The cells were first incubated with BrdU labeling reagent for 2 hours. After 2 hours, the BrdU incorporated cells were fixed and denatured, probed with an anti-BrdU-Peroxidase antibody for 1.5 hours and washed. Finally, a tetramethylbenzidine peroxidase substrate was added to each well for 15 minutes followed by a H2SO4 stop solution. The plate was read at 450 nm, and the raw optical density data was transferred into XLFit (IDBS) for IC50 calculation using the formula: fit=(D+((Vmax*(x^n))/((x^n)+(Km^n))))
Table 4 provides the cellular IC50 values of various compounds disclosed herein.

JMJD2C = JMJD2C (Homo sapiens (Human), UniProt Q9H3R0); test: JMJD2C in vitro enzyme inhibition assay (TR-FRET); assay type: biochemical; settings: 0.3 nM JMJD2C, 300 nM H3K9me3-biotin peptide, 2 μM alpha-ketoglutaric acid, 30 minutes
Sequence of JMJD2C (Q9H3R0 2-372): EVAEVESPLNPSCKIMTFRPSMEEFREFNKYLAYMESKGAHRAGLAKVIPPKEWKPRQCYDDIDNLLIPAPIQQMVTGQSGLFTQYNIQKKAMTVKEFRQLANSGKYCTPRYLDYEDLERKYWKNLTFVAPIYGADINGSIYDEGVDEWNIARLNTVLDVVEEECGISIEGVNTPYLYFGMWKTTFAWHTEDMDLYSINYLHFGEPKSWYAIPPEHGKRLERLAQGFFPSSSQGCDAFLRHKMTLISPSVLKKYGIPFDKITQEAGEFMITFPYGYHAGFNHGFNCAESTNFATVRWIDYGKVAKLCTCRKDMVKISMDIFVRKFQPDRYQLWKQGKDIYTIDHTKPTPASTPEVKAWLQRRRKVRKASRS
Method: This assay determines the ability of a test compound to inhibit JMJD2C demethylase activity. Baculovirus expressed JMJD2C (GenBank Accession #BC143571, AA 2-372) was purchased from BPS Bioscience (Cat#50105).
The ability of test compounds to inhibit the activity of JMJD2C was determined in 384-well plate format under the following reaction conditions: 0.3 nM JMJD2C, 300 nM H3K9me3-biotin labeled peptide (Anaspec cat #64360), 2 μM alpha-ketoglutaric acid in assay buffer of 50 mM HEPES, pH7.3, 0.005% Brij35, 0.5 mM TCEP, 0.2 mg/ml BSA, 50 μM sodium L-ascorbate, and 2 μM ammonium iron(II) sulfate. Reaction product was determined quantitatively by TR-FRET after the addition of detection reagent Phycolink Streptavidin-allophycocyanin (Prozyme) and Europium-anti-di-methylated histone H3 lysine 9 (H3K9me2) antibody (PerkinElmer) in the presence of 5 mM EDTA in LANCE detection buffer (PerkinElmer) at a final concentration of 50 nM and 1 nM, respectively.
The assay reaction was initiated by the following: 2 μl of the mixture of 900 nM H3K9me3-biotin labeled peptide and 6 μM alpha-ketoglutaric acid with 2 μl of 11-point serial diluted inhibitor in 3% DMSO were added to each well of the plate, followed by the addition of 2 μl of 0.9 nM JMJD2C to initiate the reaction. The reaction mixture was incubated at room temperature for 30 minutes, and terminated by the addition of 6 μl of 5 mM EDTA in LANCE detection buffer containing 100 nM Phycolink Streptavidin-allophycocyanin and 2 nM Europium-anti-H3K9me2 antibody. Plates were read by EnVisionMultilabel Reader in TR-FRET mode (excitation at 320 nm, emission at 615 nm and 665 nm) after 1 hour incubation at room temperature. A ratio was calculated (665/615) for each well and fitted to determine inhibition constant (IC50).
The ability of the compounds disclosed herein to inhibit demethylase activity was quantified and the respective IC50 value was determined. Table 3 provides the IC50 values of various compounds disclosed herein.

| Compound | IC50 [1] | IC50 (JMJD2C) |
| --- | --- | --- |
| Cn1ccc2cc(Oc3nc(O)c4ccncc4n3)ccc21 [Example 2, 2-(1-Methyl-1H-indol-5-yloxy)-pyrido[3,4-d]pyrimidin-4-ol] | ≤ 100 nM | 100 to 1000 nM |
| Oc1nc(Oc2ccc3c(ccn3CCc3ccccc3)c2)nc2cnccc12 [Example 3, 2-(1-Phenethyl-1H-indol-5-yloxy)-pyrido[3,4-d]pyrimidin-4-ol] | 100 to 1000 nM | 100 to 1000 nM |
| Oc1nc(Oc2ccc3c(ccn3Cc3ccccc3)c2)nc2cnccc12 [Example 4, 2-(1-Benzyl-1H-indol-5-yloxy)-pyrido[3,4-d]pyrimidin-4-ol] | 100 to 1000 nM | 100 to 1000 nM |
| Oc1nc(Oc2ccc3ccn(Cc4ccccc4)c3c2)nc2cnccc12 [Example 8, 2-(1-Benzyl-1H-indol-6-yloxy)-pyrido[3,4-d]pyrimidin-4-ol] |  | 1000 to 10000 nM |
| CN(Cc1ccccc1)c1cccc(Oc2nc(O)c3ccncc3n2)c1 [Example 9, 2-[3-(Benzyl-methyl-amino)-phenoxy]-pyrido[3,4-d]pyrimidin-4-ol] |  | 1000 to 10000 nM |
| Oc1nc(Oc2ccc3cnn(Cc4ccccc4)c3c2)nc2cnccc12 [Example 11, 2-(1-Benzyl-1H-indazol-6-yloxy)-pyrido[3,4-d]pyrimidin-4-ol] |  | 100 to 1000 nM |
| Oc1nc(Oc2ccc3cn(Cc4ccccc4)nc3c2)nc2cnccc12 [Example 12, 2-(2-Benzyl-2H-indazol-6-yloxy)-pyrido[3,4-d]pyrimidin-4-ol] | 1000 to 10000 nM | 100 to 1000 nM |
| Oc1nc(Oc2ccc3nn(Cc4ccccc4)cc3c2)nc2cnccc12 [Example 14, 2-[2-Benzyl-2H-indazol-5-yloxy]pyridino[3,4-d]pyrimidin-4-ol] |  | 100 to 1000 nM |
| Oc1nc(Oc2ccc3c(cnn3Cc3ccccc3)c2)nc2cnccc12 [Example 15, 2-(1-Benzyl-1H-indazol-5-yloxy)-pyridino[3,4-d]pyrimidin-4-ol] | 1000 to 10000 nM | 100 to 1000 nM |
| CN(c1ccc(Oc2nc(O)c3ccncc3n2)cc1)c1ccc(N2CCOCC2)cc1 [Example 18, 2-{4-[Methyl-(4-morpholin-4-yl-phenyl)-amino]-phenoxy}-pyrido[3,4-d]pyrimidin-4-ol] |  | 100 to 1000 nM |
| CN(c1ccc(Oc2nc(O)c3ccncc3n2)cc1)c1cccc(N2CCOCC2)c1 [Example 19, 2-{4-[Methyl-(3-morpholin-4-yl-phenyl)-amino]-phenoxy}-pyrido[3,4-d]pyrimidin-4-ol] | 100 to 1000 nM | 100 to 1000 nM |
| CN(c1ccc(Oc2nc(O)c3ccncc3n2)cc1)c1ccc(N2CCC(N)CC2)cc1 [Example 23, 2-(4-{[4-(4-amino-piperidin-1-yl)-phenyl]-methyl-amino}-phenoxy)-pyrido[3,4-d]pyrimidin-4-ol] | 1000 to 10000 nM | 100 to 1000 nM |
| Oc1nc(Oc2ccc(N3CCCC(c4ccccc4)C3)cc2)nc2cnccc12 (stereo not shown) [Example 25, 2-[4-(3-phenyl-piperidin-1-yl)-phenoxy]-pyrido[3,4-d]pyrimidin-4-ol] |  | 100 to 1000 nM |
| CN(CC1CCCc2ccccc21)c1ccc(Oc2nc(O)c3ccncc3n2)cc1 (stereo not shown) [Example 28, 2-{4-[methyl-(1,2,3,4-tetrahydro-naphthalen-1-ylmethyl)-amino]-phenoxy}-pyrido[3,4-d]pyrimidin-4-ol] |  | ≤ 100 nM |
| Oc1nc(Oc2ccc3c(ccn3C3CCCC3)c2)nc2cnccc12 [Example 31, 2-(1-cyclopentyl-1H-indol-5-yloxy)-pyrido[3,4-d]pyrimidin-4-ol] |  | 1000 to 10000 nM |
| Oc1nc(Oc2ccc3c(c2)CCCN3c2ccccc2)nc2cnccc12 [Example 33, 2-(1-phenyl-1,2,3,4-tetrahydro-quinolin-6-yloxy)-pyrido[3,4-d]pyrimidin-4-ol] |  | 1000 to 10000 nM |
| CC(C)c1ccc(N(C)c2ccc(Oc3nc(O)c4ccncc4n3)cc2)cc1N1CCOCC1 [Example 35, 2-{4-[(4-isopropyl-3-morpholin-4-yl-phenyl)-methyl-amino]-phenoxy}-pyrido[3,4-d]pyrimidin-4-ol] |  | 100 to 1000 nM |
| CC(C)Cc1ccc(N(C)c2ccc(Oc3nc(O)c4ccncc4n3)cc2)cc1 [Example 63, 2-[4-[N-methyl-4-(2-methylpropyl)anilino]phenoxy]pyrido[3,4-d]pyrimidin-4-ol] |  | 100 to 1000 nM |
| CC(C)c1ccc(N(CC(F)(F)F)c2ccc(Oc3nc(O)c4ccncc4n3)cc2)cc1 [Example 114, 2-{4-[(4-isopropyl-phenyl)-(2,2,2-trifluoro-ethyl)-amino]-phenoxy}-pyrido[3,4-d]pyrimidin-4-ol] |  | 100 to 1000 nM |
| CC(C)c1ccc(N(c2ccc(Oc3nc(O)c4ccncc4n3)cc2)C2CCOCC2)cc1 [Example 118, 2-(4-((4-isopropylphenyl)(tetrahydro-2H-pyran-4-yl)amino)phenoxy)pyrido[3,4-d]pyrimidin-4-ol] |  | 100 to 1000 nM |

Further lines, results first:

| IC50 [1] | IC50 (JMJD2C) | Compound |
| --- | --- | --- |
| 1000 to 10000 nM | 100 to 1000 nM | CN(c1ccc(Oc2nc(O)c3ccncc3n2)cc1)c1ccccn1 [Example 1, 2-[4-(Methyl-pyridin-2-yl-amino)-phenoxy]-pyrido[3,4-d]pyrimidin-4-ol] |
| 100 to 1000 nM | 100 to 1000 nM | CN(c1ccccc1)c1ccc(Oc2nc(O)c3ccncc3n2)cc1 [Example 5, 2-[4-(Methyl-phenyl-amino)-phenoxy]-pyrido[3,4-d]pyrimidin-4-ol] |
| ≤ 100 nM | 100 to 1000 nM | CN(Cc1ccccc1)c1ccc(Oc2nc(O)c3ccncc3n2)cc1 [Example 6, 2-[4-(Benzyl-methyl-amino)-phenoxy]-pyrido[3,4-d]pyrimidin-4-ol] |
| 1000 to 10000 nM | 1000 to 10000 nM | CN(c1ccccc1)c1cccc(Oc2nc(O)c3ccncc3n2)c1 [Example 7, 2-[3-(Methyl-phenyl-amino)-phenoxy]-pyrido[3,4-d]pyrimidin-4-ol] |
|  | 100 to 1000 nM | CN(c1ccccc1)c1ccc(Oc2nc(O)c3ccncc3n2)cc1F [Example 10, 2-[3-Fluoro-4-(methyl-phenyl-amino)-phenoxy]-pyrido[3,4-d]pyrimidin-4-ol] |
| 1000 to 10000 nM | 100 to 1000 nM | CN(CCc1ccccc1)c1ccc(Oc2nc(O)c3ccncc3n2)cc1 [Example 13, 2-{4-[Methyl(2-phenylethyl)amino]phenoxy}pyridino[3,4-d]pyrimidin-4-ol] |
|  | 100 to 1000 nM | COc1ccc(N(C)c2ccc(Oc3nc(O)c4ccncc4n3)cc2)cc1 [Example 16, 2-{4-[(4-Methoxy-phenyl)-methyl-amino]-phenoxy}-pyrido[3,4-d]pyrimidin-4-ol] |
|  | 100 to 1000 nM | COc1cccc(N(C)c2ccc(Oc3nc(O)c4ccncc4n3)cc2)c1 [Example 17, 2-{4-[(3-Methoxy-phenyl)-methyl-amino]-phenoxy}-pyrido[3,4-d]pyrimidin-4-ol] |
|  | 100 to 1000 nM | Cc1ccc(N(C)c2ccc(Oc3nc(O)c4ccncc4n3)cc2)cc1 [Example 20, 2-[4-(Methyl-p-tolyl-amino)-phenoxy]-pyrido[3,4-d]pyrimidin-4-ol] |
|  | 100 to 1000 nM | Cc1cccc(N(C)c2ccc(Oc3nc(O)c4ccncc4n3)cc2)c1 [Example 21, 2-[4-(Methyl-m-tolyl-amino)-phenoxy]-pyrido[3,4-d]pyrimidin-4-ol] |
| > 10000 nM | 100 to 1000 nM | CN(C(=O)Cc1ccccc1)c1ccc(Oc2nc(O)c3ccncc3n2)cc1 [Example 24, N-[4-(4-hydroxy-pyrido[3,4-d]pyrimidin-2-yloxy)-phenyl]-N-methyl-2-phenyl-acetamide] |
|  | ≤ 100 nM | CC(C)c1ccc(N(C)c2ccc(Oc3nc(O)c4ccncc4n3)cc2)nc1 [Example 34, 2-{4-[(5-isopropyl-pyridin-2-yl)-methyl-amino]-phenoxy}-pyrido[3,4-d]pyrimidin-4-ol] |
|  | 100 to 1000 nM | CC(C)c1cccc(N(C)c2ccc(Oc3nc(O)c4ccncc4n3)cc2)c1 [Example 93, 2-[4-(N-methyl-3-propan-2-ylanilino)phenoxy]pyrido[3,4-d]pyrimidin-4-ol] |

— US10112940B2, “Histone demethylase inhibitors” (Celgene Quanticel Research, Inc., priority 2014, dated 2018)
